Test results taken from US10980755B2, “LRH-1 modulators” (THE REGENTS OF THE UNIVERSITY OF CALIFORNIA, priority 2015, dated 2021).
“Also recorded” adds a separate entry of the source.

Key:
hLRH-1 = biological target: T1, hLRH-1 (Homo sapiens, UniProt O00482); assay: RT-qPCR of hLRH-1 target gene CYP24A1 in HepG2 / HepG2-hLRH-1 cells; type: cell-based
T1 construct: expressed in transfected cells; host or cells: TET-On 3G HepG2 cells; Dox-inducible pTRE 3G vector (Clontech)

TBP = assay: RT-qPCR of housekeeping gene TBP in HepG2-hLRH-1 cells; type: cell-based, human; conditions: high hLRH-1 (+Dox), 16 h, SR1848 10 μM
Experimental: FIG. 9. Effects of select compounds targeting hLRH-1 compared to PME8. Agonists and antagonists were tested in HepG2-hLRH-1 cells expressing high levels (+Dox) of hLRH-1; activating compounds were added for 16 h relative to the DMSO control (black bars) at the following concentrations: RJW100 (10 μM), DLPC (20 μM), PME8 (10 μM) (bolded, this study) as well as the two putative antagonist/repressors, SR1848 (10 μM) and Cpd3 (10 μM); relative levels of the hLRH-1 target, CYP24A1 (left set of bars) and the housekeeping gene, TBP (right set of bars) are shown with all values normalized to GAPDH. Error bars represents SEM and P values=****<0.0001.
Finally, to ask how PME8 and PME9 compare to other published compounds, we directly compared the activity of all compounds with respect to the ability to activate or repress CYP24A1 expression in HepG2-hLRH-1 cells. For this experiment, assays were carried out under high levels of hLRH-1 (+Dox) to maximize our ability to see any repressive effects of compounds and the ligand concentrations used were based on published effective doses. […] Of the two published antagonist/repressors, only SR1848 decreased CYP24A1 levels. […]
For RT-qPCR assay, cells (5×10^5) were plated on 24-well plates in 0.5 mL of media. […] RT-qPCR was performed with SYBR (Biotool) and data analyzed essentially as described. […]

F342W/I416W hLRH-1 = biological target: T2, F342W/I416W hLRH-1 (Homo sapiens, UniProt O00482, F342W/I416W); assay: RT-qPCR of CYP24A1 in HepG2 cells stably expressing the hLRH-1 pocket mutant; type: cell-based; conditions: 10 μM, 16 h, low levels of hLRH-1; listed as PME8
T2 construct: expressed in transfected cells; host or cells: TET-On 3G HepG2 cells; Dox-inducible pTRE 3G vector (Clontech)
Experimental: Cell lines and Quantitative Real-time Polymerase Chain Reaction (RT-qPCR) Assay. […] Induction of low or high levels of hLRH-1 was achieved by addition of DMSO or 500 ng/ml Dox, respectively.
For RT-qPCR assay, cells (5×10^5) were plated on 24-well plates in 0.5 mL of media. The following day, fresh media was applied with compound or DMSO control. After an overnight treatment or indicated period of time, cells were washed with ice-cold 1×PBS and total RNA was isolated by Trizol (Life Technologies). DNase-treated total RNA was used to generate cDNA using High-Capacity cDNA Reverse Transcription kits (Life Technologies). RT-qPCR was performed with SYBR (Biotool) and data analyzed essentially as described [19].

[1] = biological target: biotinylated apo hLRH-1 LBD (Homo sapiens, UniProt O00482); assay: Surface plasmon resonance binding assay; conditions: SPR, 25° C., titration from 300 μM, 1:1 binding model; listed as PME8
Chain of biotinylated apo hLRH-1 LBD (O00482 300-539 limits assumed): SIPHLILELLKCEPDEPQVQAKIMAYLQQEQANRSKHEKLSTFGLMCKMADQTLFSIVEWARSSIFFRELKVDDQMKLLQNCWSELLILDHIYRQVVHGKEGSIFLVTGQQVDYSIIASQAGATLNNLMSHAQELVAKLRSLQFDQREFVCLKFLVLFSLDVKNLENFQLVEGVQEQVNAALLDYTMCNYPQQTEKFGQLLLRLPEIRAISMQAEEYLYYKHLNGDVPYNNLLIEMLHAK
Experimental: Surface Plasmon Resonance Assays. Data were collected on a BiaCore T100 instrument. The biotin CAPture kit (GE Healthcare Life Science) was used as directed for chip preparation and immobilization of protein. In brief, the CAP chip was first conditioned with 3×1 min injec-tions of the provided regeneration solution (6 M Guanidine HCL, 0.25 M NaOH). CAP reagent was then captured on flow cells 1 and 2 to a final density of ˜2500 response units using capture buffer (25 mM HEPES, pH 7.4, 150 mM NaCl). Avi-tagged LRH-1 was then directly injected exclusively on to flow cell 2 achieving a final density of ˜1000 response units (capture buffer). […] A titration series for each fragment was generated as a 0.6× dilution series starting from 300 μM. All samples were made to match the running buffer used in the experiment as closely as possible (capture buffer+3% DMSO, +0.05% Tween-20, 250 μM TCEP). Data was collected at 25° C. with a flow rate of 30 μL/min. Data processing included referencing to both the reference flow cell as well as a buffer injection. Equilibrium binding constants were determined by nonlinear regression analysis utilizing a simple 1:1 binding model. Steady state values used to generate dose-responses curve correspond to the response units achieved 20 seconds after injection.

T1 sequence (O00482 whole entry): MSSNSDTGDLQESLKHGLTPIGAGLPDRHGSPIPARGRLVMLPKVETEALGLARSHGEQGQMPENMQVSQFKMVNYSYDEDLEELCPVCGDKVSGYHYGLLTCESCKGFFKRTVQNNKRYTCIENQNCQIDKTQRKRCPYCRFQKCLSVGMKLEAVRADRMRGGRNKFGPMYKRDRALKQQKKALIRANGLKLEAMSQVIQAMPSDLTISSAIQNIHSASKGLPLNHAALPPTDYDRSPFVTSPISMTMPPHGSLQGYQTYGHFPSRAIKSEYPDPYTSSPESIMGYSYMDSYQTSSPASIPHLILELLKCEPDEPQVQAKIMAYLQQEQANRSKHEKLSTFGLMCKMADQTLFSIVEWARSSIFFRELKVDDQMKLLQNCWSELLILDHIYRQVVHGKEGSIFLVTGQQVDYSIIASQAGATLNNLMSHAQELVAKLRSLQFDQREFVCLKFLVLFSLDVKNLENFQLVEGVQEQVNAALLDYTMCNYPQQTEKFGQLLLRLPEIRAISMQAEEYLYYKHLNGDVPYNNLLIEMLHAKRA
T2 sequence (O00482 whole entry F342W/I416W): as the sequence (O00482 whole entry) above, with F342W, I416W counted along it

Row | CYP24A1 expression, comparison of published compounds (hLRH-1; high hLRH-1 (+Dox), 16 h, RJW100 10 μM, DLPC 20 μM, SR1848 10 μM) | treatment time of maximal activity (CYP24A1 levels) (hLRH-1; HepG2-hLRH-1 cells) [h] | Compound | expression of the housekeeping gene TBP (TBP) | CYP24A1 expression after siRNA-mediated knockdown of hLRH-1 (dependence on hLRH-1) (hLRH-1; 10 μM, siLRH-1 vs siControl, HepG2-hLRH-1 cells, low hLRH-1 (−Dox), listed as PME8) | time and dose dependence of CYP24A1 induction (hLRH-1; HepG2-hLRH-1 cells, 3-24 h at 10 μM, increasing concentrations for 16 h, −Dox or +Dox, listed as PME8) | activity (CYP24A1 transcripts) in cells expressing the pocket mutant versus wild type hLRH-1 (F342W/I416W hLRH-1) | binding to the hLRH-1 LBD [1]
1 | decreased | – | O=c1cc(N2CCN(c3cccc(Cl)c3)CC2)[nH]c(=O)n1C1CCCCC1 [SR1848, reference compound] | substantial repression | – | – | – | –
2 | – | 16 | CCCNC(=O)c1cc(C(C)(C)C)cc(C(C)(C)C)c1O [Compound 8, 3,5-di-tert-butyl-2-hydroxy-N-propylbenzamide] | – | precipitous drop in CYP24A1 expression; also recorded: Depends on hLRH-1 | time-dependent (FIG. 7A) and dose-dependent | decreased; also recorded: depends on an intact hLRH-1 ligand binding pocket | direct binding; also recorded: bind directly
